Results on 14 compounds are retold here after US10377791B2, “Therapeutically active estratrienthiazole derivatives as inhibitors of 17 B-hydroxysteroid dehydrogenase, type 1” (FORENDO PHARMA LTD, priority 2013, dated 2019).

In assay [1] the target is T1, recombinant human 17β-HSD1 (Homo sapiens, UniProt P14061).
T1 construct: made in house; host or cells: Sd9 (Sf9) insect cells, baculovirus (Bac to Bac Expression System)
T1 sequence (P14061 1-328): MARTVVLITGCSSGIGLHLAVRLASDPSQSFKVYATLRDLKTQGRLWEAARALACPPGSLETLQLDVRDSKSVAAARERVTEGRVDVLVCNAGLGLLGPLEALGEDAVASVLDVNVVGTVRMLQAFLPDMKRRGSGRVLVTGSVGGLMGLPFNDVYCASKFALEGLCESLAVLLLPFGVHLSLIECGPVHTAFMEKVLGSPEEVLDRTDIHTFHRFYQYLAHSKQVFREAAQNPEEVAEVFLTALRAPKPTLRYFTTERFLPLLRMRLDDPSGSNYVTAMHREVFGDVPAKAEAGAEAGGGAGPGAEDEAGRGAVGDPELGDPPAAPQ
Put plainly: Inhibition of recombinant human 17β-HSD1. Type of assay: biochemical. The following applies: inhibitor at 1 μM; 30 nM estrone, 1 mM NADPH, 30 min at RT; read-out: 17β-HDS1 Inhibition % at 1 μM. As to the method:
Recombinant baculovirus was generated by the “Bac to Bac Expression System” (Invitrogen). Recombinant bacmid was transfected to Sd9 insect cells using “Cellfectin Reagent” (Invitrogen). 60 h later cells were harvested; the microsomal fraction was isolated as described by Puranen, T. J., Poutanen, M. H., Peltoketo, H. E., Vihko, P. T. and Vihko, R. K. (1994) Site-directed mutagenesis of the putative active site of human 17 β-hydroxysteroid dehydrogenase type 1. Biochem. J. 304: 289-293. Aliquots were stored frozen until determination of enzymatic activity.
Recombinant protein (1 μg/ml) was incubated in 20 mM KH2PO4 pH 7.4 with 30 nM estrone (including 800 000 cpm/ml of ^3H-estrone) and 1 mM NADPH for 30 min at RT, in the presence of the potential inhibitor at concentrations 1 μM or 0.1 μM. Inhibitor stock solutions were prepared in DMSO. Final concentration of DMSO was adjusted to 1% in all samples. The enzyme reaction was stopped by addition of 10% trichloroacetic acid (final concentration). Samples were centrifuged in a microtiter plate at 4000 rpm for 10 min. Supernatants were applied to reverse phase HPLC on a Waters Symmetry C18 column, equipped with a Waters Sentry Guard column. Isocratic HPLC runs were performed at RT at a flow rate of 1 ml/min in acetonitrile:water 48:52 as running solvent. Radioactivity was monitored in the eluate by a Packard Flow Scintillation Analyzer. Total radioactivity for estrone and estradiol were determined in each sample and percent conversion of estrone to estradiol was calculated according to the following formula:
(§1) [formula] Percent inhibition was calculated flowingly: % inhibition=100−% conversion

Assay [2] deals with T2, recombinant human 17β-HSD2 (Homo sapiens, UniProt P37059).
T2 construct: made in house; host or cells: Sd9 (Sf9) insect cells, baculovirus (Bac to Bac Expression System)
T2 sequence (P37059 1-387): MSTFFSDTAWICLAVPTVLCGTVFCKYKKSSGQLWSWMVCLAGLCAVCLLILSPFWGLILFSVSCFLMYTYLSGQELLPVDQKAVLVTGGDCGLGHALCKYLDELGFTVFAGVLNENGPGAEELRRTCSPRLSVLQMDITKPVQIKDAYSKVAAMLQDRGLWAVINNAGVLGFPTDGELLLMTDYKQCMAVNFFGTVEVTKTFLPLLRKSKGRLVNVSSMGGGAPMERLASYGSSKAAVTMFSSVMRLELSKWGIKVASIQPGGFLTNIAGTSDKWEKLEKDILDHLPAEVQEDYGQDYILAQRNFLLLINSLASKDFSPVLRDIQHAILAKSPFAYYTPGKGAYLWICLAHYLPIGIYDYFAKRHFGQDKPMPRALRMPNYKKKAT
As to the kind of experiment: Inhibition of recombinant human 17β-HSD2. Type of assay: biochemical. Particulars: inhibitor at 1 μM; 50 nM estradiol, 1 mM NADH, 30 min at RT; read-out: 17β-HSD2 Inhibition % at 1 μM. As for the experimental part:
Similarly to 17β-HSD1 the Recombinant baculovirus was generated by the “Bac to Bac Expression System” (Invitrogen). Recombinant bacmid was transfected to Sd9 insect cells using “Cellfectin Reagent” (Invitrogen). 60 h later cells were harvested and supernatant were fractionated by the following protocol: • cells were dissolved into 40 ml of A-buffer (40 mM TRIS, pH8.0, 20% glycerol, 20 μM NAD, 0.4 mM PMSF, 150 mM NaCl, 0.5% dodecyl-β-maltoside+protease inhibitor cocktail) • cells were sonicated • lysate was incubated on ice for 15 min • lysate was centrifuged 5000 rpm 15 min, +4° C. • centrifugation of the supernatant 180 000 g 30 min, +4° C. • pellet was dissolved into 8 ml of A-buffer • not resuspended material was removed by centrifugation 5000 rpm 15 min, +4° C. • the clear supernatant was divided into 100 μl aliquots and were stored frozen until determination of enzymatic activity.
The amount of 17β-HSD2 was analysed by immunoblotting and total protein concentration of each extract batch was determined.
Recombinant protein (4 μg/ml) was incubated in 20 mM KH2PO4 pH 8.5 with 50 nM estradiol (including 800 000 cpm/ml of ^3H-estradiol) and 1 mM NADH for 30 min at RT, in the presence of the potential inhibitor at concentrations 1 μM or 0.1 μM. Inhibitor stock solutions were prepared in DMSO. Final concentration of DMSO was adjusted to 1% in all samples. The enzyme reaction was stopped by addition of 10% trichloroacetic acid (final concentration). Samples were centrifuged in a microtiter plate at 4000 rpm for 10 min. Supernatants were applied to reverse phase HPLC on a Waters Symmetry C18 column, equipped with a Waters Sentry Guard column. Isocratic HPLC runs were performed at RT at a flow rate of 1 ml/min in acetonitrile:water 48:52 as running solvent. Radioactivity was monitored in the eluate by a Packard Flow Scintillation Analyzer. Total radioactivity for estrone and estradiol were determined in each sample and percent conversion of estradiol to estrone was calculated according to the following formula:
as §1

Regarding `Cc1cnc(NC(=O)CC[C@@H]2CC(=O)[C@@]3(C)CCC4c5cc(CN(C)C)c(O)cc5CCC4C23)s1` (stereo partly drawn) [Compound 44, 3-((13S,15R)-2-((dimethylamino)methyl)-3-hydroxy-13-methyl-17-oxo-7,8,9,11,12,13,14,15,16,17-decahydro-6H-cyclopenta[a]phenanthren-15-yl)-N-(5-methylthiazol-2-yl)propanamide], the inhibition – broadly, the change of the read-out against control, counted positive when it falls – at 1 µM in assay [1] is 91%; in assay [2] it was 2%.

Turning to `Cc1cnc(NC(=O)CC[C@@H]2CC(=O)[C@@]3(C)CCC4c5cc(CN6CCCC6)c(O)cc5CCC4C23)s1` (stereo partly drawn) [Compound 45, 3-((13S,15R)-3-hydroxy-13-methyl-17-oxo-2-(pyrrolidin-1-ylmethyl)-7,8,9,11,12,13,14,15,16,17-decahydro-6H-cyclopenta[a]phenanthren-15-yl)-N-(5-methylthiazol-2-yl)propanamide], the inhibition at 1 µM in assay [1] was 83%; in assay [2] it was 0%.

Regarding `Cc1cnc(NC(=O)CC[C@@H]2CC(=O)[C@@]3(C)CCC4c5ccc6ocnc6c5CCC4C23)s1` (stereo partly drawn) [Compound 46, 3-((7aS,10R)-7a-methyl-8-oxo-6,7,7a,8,9,10,10a,10b,11,12-decahydro-5bH-cyclopenta[7,8]phenanthro[1,2-d]oxazol-10-yl)-N-(5-methylthiazol-2-yl)propanamide], the inhibition at 1 µM in assay [1] came out at 87%; in assay [2], 3%.

In the case of `Cc1nc2cc3c(cc2o1)CCC1C3CC[C@]2(C)C(=O)C[C@@H](CCC(=O)Nc3ncc(C)s3)C12` (stereo partly drawn) [Compound 48, 3-((3R,12aS)-8,12a-dimethyl-1-oxo-2,3,3a,3b,4,5,10b,11,12,12a-decahydro-1H-cyclopenta[7,8]phenanthro[3,2-d]oxazol-3-yl)-N-(5-methylthiazol-2-yl)propanamide], the values for the inhibition at 1 µM in assay [1] and in assay [2] were 91% and 2%, respectively.

On to `Cc1nc2c3c(ccc2o1)C1CC[C@]2(C)C(=O)C[C@@H](CCC(=O)Nc4ncc(C)s4)C2C1CC3` (stereo partly drawn) [Compound 49, 3-((7aS,10R)-2,7a-dimethyl-8-oxo-6,7,7a,8,9,10,10a,10b,11,12-decahydro-5bH-cyclopenta[7,8]phenanthro[1,2-d]oxazol-10-yl)-N-(5-methylthiazol-2-yl)propanamide], for which the inhibition at 1 µM in assay [1] was found to be 84%; in assay [2] it was 1%.

Regarding `Cc1cnc(NC(=O)CC[C@@H]2CC(=O)[C@@]3(C)CCC4c5cc6[nH]c(=O)oc6cc5CCC4C23)s1` (stereo partly drawn) [Compound 50, 3-((3R,12aS)-12a-methyl-1,8-dioxo-2,3,3a,3b,4,5,8,9,10b,11,12,12a-dodecahydro-1H-cyclopenta[7,8]phenanthro[3,2-d]oxazol-3-yl)-N-(5-methylthiazol-2-yl)propanamide], the inhibition at 1 µM in assay [1] came out at 91%; in assay [2], 40%.

Take `Cc1cnc(NC(=O)CC[C@@H]2CC(=O)[C@@]3(C)CCC4c5ccc6oc(=O)[nH]c6c5CCC4C23)s1` (stereo partly drawn) [Compound 51, 3-((7aS,10R)-7a-methyl-2,8-dioxo-2,5b,6,7,7a,8,9,10,10a,10b,11,12-dodecahydro-1H-cyclopenta[7,8]phenanthro[1,2-d]oxazol-10-yl)-N-(5-methylthiazol-2-yl)propanamide]: the inhibition at 1 µM in assay [1] came to 78%; in assay [2], 1%.

Take `COc1cc2c(cc1I)C1CC[C@]3(C)C(=O)C[C@@H](CCC(=O)Nc4ncc(C)s4)C3C1CC2` (stereo partly drawn) [Compound 52, 3-((13S,15R)-2-iodo-3-methoxy-13-methyl-17-oxo-7,8,9,11,12,13,14,15,16,17-decahydro-6H-cyclopenta[a]phenanthren-15-yl)-N-(5-methylthiazol-2-yl)propanamide]: the values for the inhibition at 1 µM in assay [1] and in assay [2] were 93% and 1%, respectively.

As for `Cc1cnc(NC(=O)CC[C@@H]2CC(=O)[C@@]3(C)CCC4c5cc(I)c(O)c(I)c5CCC4C23)s1` (stereo partly drawn) [Compound 53, 3-((13S,15R)-3-hydroxy-2,4-diiodo-13-methyl-17-oxo-7,8,9,11,12,13,14,15,16,17-decahydro-6H-cyclopenta[a]phenanthren-15-yl)-N-(5-methylthiazol-2-yl)propanamide], the inhibition at 1 µM in assay [1] was found to be 94%; in assay [2], 5%.

On to `Cc1cnc(NC(=O)CC[C@@H]2CC(=O)[C@@]3(C)CCC4c5ccc(O)c(I)c5CCC4C23)s1` (stereo partly drawn) [Compound 54, 3-((13S,15R)-3-hydroxy-4-iodo-13-methyl-17-oxo-7,8,9,11,12,13,14,15,16,17-decahydro-6H-cyclopenta[a]phenanthren-15-yl)-N-(5-methylthiazol-2-yl)propanamide], for which the inhibition at 1 µM worked out at 86% in assay [1] and 4% in assay [2].

As to `Cc1cnc(NC(=O)CC[C@@H]2CC(=O)[C@@]3(C)CCC4c5cc(I)c(O)cc5CCC4C23)s1` (stereo partly drawn) [Compound 55, 3-((13S,15R)-3-hydroxy-2-iodo-13-methyl-17-oxo-7,8,9,11,12,13,14,15,16,17-decahydro-6H-cyclopenta[a]phenanthren-15-yl)-N-(5-methylthiazol-2-yl)propanamide], the inhibition at 1 µM came to 98% in assay [1] and 7% in assay [2].

Consider `Cc1cnc(NC(=O)CC[C@@H]2CC(=O)[C@@]3(C)CCC4c5cc(Br)c(O)cc5CCC4C23)s1` (stereo partly drawn) [Compound 56, 3-((13S,15R)-2-bromo-3-hydroxy-13-methyl-17-oxo-7,8,9,11,12,13,14,15,16,17-decahydro-6H-cyclopenta[a]phenanthren-15-yl)-N-(5-methylthiazol-2-yl)propanamide], for which the inhibition at 1 µM in assay [1] stood at 93%; in assay [2] it was 18%.

With `Cc1cnc(NC(=O)CC[C@@H]2CC(=O)[C@@]3(C)CCC4c5ccc(O)c(Br)c5CCC4C23)s1` (stereo partly drawn) [Compound 57, 3-((13S,15R)-4-bromo-3-hydroxy-13-methyl-17-oxo-7,8,9,11,12,13,14,15,16,17-decahydro-6H-cyclopenta[a]phenanthren-15-yl)-N-(5-methylthiazol-2-yl)propanamide], the inhibition at 1 µM stood at 92% in assay [1] and 16% in assay [2].

As for `Cc1cnc(NC(=O)CC[C@@H]2C(Br)C(=O)[C@@]3(C)CCC4c5cc(Br)c(O)c(Br)c5CCC4C23)s1` (stereo partly drawn) [Compound 59, N-(5-methylthiazol-2-yl)-3-((13S,15S)-2,4,16-tribromo-3-hydroxy-13-methyl-17-oxo-7,8,9,11,12,13,14,15,16,17-decahydro-6H-cyclopenta[a]phenanthren-15-yl)propanamide], the inhibition at 1 µM in assay [1] was found to be 79%; in assay [2], 2%.
